# Measured values taken from US20250206722A1, “SMALL MOLECULE INHIBITORS OF TEA DOMAIN FAMILY MEMBERS” (The Scripps Research Institute, priority 2022, published 2025).
# Columns and labels:
# NCI-H226 cells [1] = assay: NCI-H226 proliferation assay (Wuxi AppTec); format: cell-based; settings: Homo sapiens, 168 h, 7 days, CellTiter-Glo, top dose 10, 3-fold dilution, 9 doses
# Method in brief: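 NCI-H226 cells were seeded at 500 cells/well overnight, then treated with compounds in a 9-point, 3-fold dilution from a top dose of 10 μM, with 0.2% DMSO. Plates were incubated 7 days at 37° C, 5% CO2. Viability was read by CellTiter-Glo luminescence, normalized to DMSO (max) and medium-only (min) controls.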
# NCI-H226 cells [2] = assay: NCI-H226 proliferation assay (in house); format: cell-based; settings: Homo sapiens, 120 h, 5 days, Cell TiterGlo, 20-point 1:2 dilution from 20 μM
# Method in brief: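 Cells in RPMI 1640 + 10% FBS, 500 per well, dosed after 24 h with 20-point 1:2 dilutions from 20 μM (final), in triplicate. After 5 days at 37 °C, 5% CO2, viability read by CellTiter-Glo luminescence.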
# [3] = test system: transcriptional activity of TEADs; assay: TEAD reporter assay (MCF7 TEAD-LUC reporter cells); format: cell-based; settings: Homo sapiens, 24 hours, BrightGlo luminescence
# Method in brief: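 MCF7 TEAD-LUC reporter cells were plated at 5,000/well and after 24 h treated with a 20-point 1:2 series from 20 μM final, in triplicate. Luciferase was read by BrightGlo luminescence after 24 h exposure at 37 °C.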
# IMR32 cells = assay: IMR32 cytotoxicity assay; format: cell-based; settings: Homo sapiens, IMR-32, 72 h, 3 days, Cell TiterGlo
# Protocol: IMR32 cells were obtained from American Type Culture Collection (ATCC, CCL-127) and cultured in DMEM (Corning, 10-013-CV) supplemented with 10% fetal bovine serum (Gibco, 10438-026) and 1% penicillin-streptomycin (Gibco, 15070063). Cells were trypsinized, resuspended in growth medium, and diluted to a concentrated of 20,000 cells/mL. 1,000 cells, 50 μL of cell suspension, per well were then plated in a white 384-well plate (Corning) and incubated at 37° C., 5% CO2. After 24 hours incubation, 100 nL of test compounds in DMSO, 20-point 1:2 dilution starting from 20 μM (final concentration) in triplicate, were transferred to each well using an Agilent Bravo instrument outfitted with a pintool head. Cells were incubated at 37° C., 5% CO2 for 3 days followed by the addition of 30 μL of Cell TiterGlo (Promega; diluted 1:6 in water) to each well and luminescence values recorded using an EnVision plate reader. […]
# [4] = Pharmacokinetic studies in mice; format: in vivo, mouse; settings: for Vd / clearance / half-life: mouse plasma; for Vd / clearance: intravenous 2 mg/kg in 75% PEG 300+25% D5W; for half-life: intravenous 2 mg/kg, oral 10 mg/kg in 75% PEG 300+25% D5W; for bioavailability: plasma, mouse, oral 10 mg/kg vs intravenous 2 mg/kg in 75% PEG 300+25% D5W
# Protocol: Pharmacokinetic Studies in mice: The plasma pharmacokinetic profiles of representative compounds were evaluated in mouse via intravenous (2 mg/kg in 75% PEG 300+25% D5W solution) and oral (10 mg/kg in 75% PEG 300+25% D5W solution) dosing routes.
Compound,IC50 (NCI-H226 cells [1]) [µM],IC50 (NCI-H226 cells [2]) [µM],IC50 [3] [nM],IC50 (IMR32 cells) [nM],Vd [4] [L/kg],clearance [4] [mL/min/kg],half-life [4] [min],bioavailability [4] [%]
"C=CC(=O)N1CCN(c2nccnc2Nc2ccc(C(F)(F)F)cc2)CC1 [Compound 1, 1-(4-(3-((4-(trifluoromethyl)phenyl)amino)pyrazin-2-yl)piperazin-1-yl)prop-2-en-1-one]",0.0143,0.0166,1.8,> 10000,7,42.2,126,94.4
"C=CC(=O)N1CCN(c2nccnc2Nc2ccc(C(F)(F)F)cn2)CC1 [Example 39, 1-(4-(3-((5-(trifluoromethyl)pyridin-2-yl)amino)pyrazin-2-yl)piperazin-1-yl)prop-2-en-1-one]",0.015,0.016,5,> 20000,1.8,39.5,30,90
"C=CC(=O)N1CCC(c2nccnc2Oc2ccc(C(F)(F)F)nc2)CC1 [Example 79, 1-(4-(3-((6-(trifluoromethyl)pyridin-3-yl)oxy)pyrazin-2-yl)piperidin-1-yl)prop-2-en-1-one]",0.028,0.017,2,,1.73,47.3,24,109
